Entries after “also recorded” stand apart in the source; their conditions may differ.
Columns and labels:
[1] = test system: Human SV7tert angiomyolipoma cells; assay: Inhibition of proliferation of SV7tert cells by tyrosine kinase inhibitors (cell count); format: cell-based; conditions: for N number of living cells after 72 h treatment: Human SV7tert cells; for sensitivity / growth inhibition of SV7tert cells (in words): Human SV7tert cells in vitro; for No. of Cells after 72 hours: SV7tert cells
Excerpt: (§1) SV7tert (ATCC CRL 2461) is a cell line derived from a human angiomyolipoma through the sequential introduction of SV40 large T antigen and telomerase into primary human angiomyolipoma cells (Arbiser, J. L. et al. The generation and characterization of a cell line derived from a sporadic renal angiomyolipoma: use of telomerase to obtain stable populations of cells from benign neoplasms. Am.J.Pathol. 159, 483-491 (2001)). Angiomyolipomas are benign tumors of the kidney derived from putative perivascular epithelioid cells, that may undergo differentiation into cells with features of melanocytes, smooth muscle, and fat. Tsc2ang1 (ATCC CRL 2620) is a murine cell line derived from a cutaneous sarcoma arising in the extremity of a mouse heterozygous for tsc2. The sarcoma tissue was digested with collagenase and processed as described for SV7tert cells (Arbiser, J. L. et al.). Mice heterozygous for tsc2 develop cutaneous sarcomas at a frequency of approximately 10-15% (Onda, H., Lueck, A., Marks, P. W., Warren, H. B., & Kwiatkowski, D. J. Tsc2(+/−) mice develop tumors in multiple sites that express gelsolin and are influenced by genetic background. J.Clin Invest 104, 687-695 (1999)).
(§2) The following tyrosine kinase inhibitors were reconstituted as stock solutions in dimethyl sulfoxide (DMSO) immediately prior to use; AG9, AG17, AG18, AG30, AG82, AG99, AG112, AG370, AG490, AG879, AG957, AG1295, AG1296, AG1433, 2′thioadenosine, ST638, COMPOUND I, lavendustin C, oxindole 1, JAK3 inhibitors 1,2, and 3, as well as JAK3 inhibitor negative control. They can be obtained from Calbiochem (San Diego, Calif.). 10,000 cells per well in a 24 well dish were plated on day 1, and were treated with inhibitors in doses ranging from […] (LaMontagne Jr K. R. Jr et al. Inhibition of MAP kinase kinase causes morphological reversion and dissociation between soft agar growth and in vivo tumorigenesis in angiosarcoma cells; Am.J.Pathol. 157,1937-1945 (2000)). Cells were counted 72 hours after treatment with inhibitors using a Coulter Counter (Coulter, Hialeah,Fla.).

Murine tsc2ang1 cells = assay: Inhibition of proliferation of tsc2ang1 cells by tyrosine kinase inhibitors (cell count); format: cell-based; conditions: for N number of living cells after 72 h treatment: Murine tsc2ang1 cells
Excerpt: as §1, §2

[2] = test system: Akt phosphorylation in SV7tert cells; assay: Akt phosphorylation in SV7tert cells after treatment; format: cell-based, human; conditions: after 24 hours of treatment

Row | Compound | N number of living cells after 72 h treatment ([1]; concentration 10 μg/ml) | N number of living cells after 72 h treatment ([1]; concentration 20 μg/ml) | sensitivity / growth inhibition of SV7tert cells (in words) [1] | further results
1 | CCOc1cc(/C=C(\C#N)C(N)=O)cc(CSc2ccccc2)c1O [ST638] | 250 ×100 | 205 ×100 | – | –
2 | COc1cc2ncnc(Nc3cccc(Cl)c3)c2cc1OC [AG1478] | 251 ×100 | 210 ×100 | – | –
3 | COC(=O)c1ccc(NCc2cc(O)ccc2O)cc1 [AG957] | – | – | highest sensitivity | inhibition ([1]; 0.5 μg/ml, data not shown, cell line not stated in the sentence (SV7tert by context)): approximately 90%
4 | CC(C)(C)c1cc(C=C(C#N)C#N)cc(C(C)(C)C)c1O [AG17, 3,5-di-tert-butyl-4-hydroxybenzylidene-malononitrile] | 23 ×100 | 22 ×100 | highest sensitivity; also recorded: strongly inhibited | sensitivity / growth inhibition of tsc2ang1 cells (in words) (Murine tsc2ang1 cells; Murine tsc2ang1 cells in vitro): hypersensitivity; also recorded: strongly inhibited; N number of living cells after 72 h treatment (Murine tsc2ang1 cells; concentration 10 μg/ml): 23 ×100; N number of living cells after 72 h treatment (Murine tsc2ang1 cells; concentration 20 μg/ml): 23 ×100
5 | N#C/C(=C\c1ccc(O)c(O)c1)C(=O)O [AG30] | 250 ×100 | 270 ×100 | – | –
6 | Cc1ccc(NC(=O)c2ccc(CN3CCN(C)CC3)cc2)cc1Nc1nccc(-c2cccnc2)n1 [COMPOUND I, N-{5-[4-(4-methyl-piperazino-methyl)-benzoylamido]-2-methylphenyl}-4-(3-pyridyl)-2-pyrimidine-amine] | – | – | increased sensitivity to COMPOUND I compared to murine tsc2ang1 | No. of Cells after 72 hours ([1]; 2 μg/ml (control 22450)): 16500; No. of Cells after 72 hours ([1]; 5 μg/ml (control 22450)): 10000; No. of Cells after 72 hours ([1]; 10 μg/ml (control 22450)): 6500; Akt phosphorylation (in words) [2]: downregulation of Akt phosphorylation
